Assay results reported in DBAASP.
≈ marks a conversion by molar mass, not a printed value. Values belong to the compound of their own block, whether it stands above or below them.

How the values were obtained:
Experiment in all cases: ≥ marks a high value that may be exact or a test limit, other limits are often not marked, values filed in µg/mL are converted to µM
[1] = tested on: Staphylococcus aureus NCTC 12493
[2] = tested on: Staphylococcus aureus NCTC 10788
[3] = tested on: Pseudomonas aeruginosa ATCC 27853
[4] = tested on: Escherichia coli NCTC 10418
[5] = tested on: Klebsiella pneumoniae ATCC 43816
[6] = tested on: Candida albicans NCTC 1467
Escherichia coli = tested on: Escherichia coli
Candida boidinii = tested on: Candida boidinii
Psychrobacter sp. TAD 1 = tested on: Psychrobacter sp. TAD 1
Bacillus pumilus = tested on: Bacillus pumilus
Pseudomonas aeruginosa = tested on: Pseudomonas aeruginosa
Escherichia coli ESBL = tested on: Escherichia coli ESBL
[7] = tested on: Staphylococcus aureus Xen36
[8] = tested on: Escherichia coli ATCC 25922
Staphylococcus aureus MR = tested on: Staphylococcus aureus MR
[9] = tested on: Staphylococcus aureus ATCC BAA-1696
[10] = tested on: Staphylococcus aureus ATCC 25923
[11] = tested on: Staphylococcus aureus ATCC 29213
[12] = tested on: Escherichia coli ATCC 11229
[13] = tested on: Staphylococcus aureus ATCC 33591
[14] = tested on: Klebsiella pneumoniae ATCC 13866
[15] = tested on: Escherichia coli ATCC 35218
[16] = tested on: Franconibacter helveticus DSM 18390
[17] = tested on: Escherichia coli DSM 1116
[18] = tested on: Staphylococcus xylosus DSM 20267
[19] = tested on: Bacillus subtilis DSM 347
[20] = tested on: Staphylococcus epidermidis NBRC 12993
[21] = tested on: Candida viswanathii NBRC 10321
[22] = tested on: Aspergillus oryzae NBRC 100959
[23] = tested on: Micrococcus luteus NBRC 3333
[24] = tested on: Escherichia coli NBRC 3972
[25] = tested on: Mycobacterium tuberculosis H37Ra
Bacillus subtilis 168 = tested on: Bacillus subtilis 168
[26] = tested on: Escherichia coli DH5alpha
[27] = tested on: Staphylococcus aureus NRS 72
[28] = tested on: Pseudomonas aeruginosa PAO1
[29] = tested on: Staphylococcus aureus USA 300
[30] = tested on: Saccharomyces cerevisiae NBRC 10217
[31] = tested on: Staphylococcus aureus NBRC 12732
[32] = tested on: Escherichia coli NBRC 14237

Structure (SMILES): NCCCC[C@H](NC(=O)CNC(=O)[C@H](CCCCN)NC(=O)[C@H](CC(N)=O)NC(=O)[C@H](CCCCN)NC(=O)[C@H](Cc1cnc[nH]1)NC(=O)[C@H](CCCCN)NC(=O)CN)C(=O)N[C@@H](CCCCN)C(=O)N[C@@H](CC(N)=O)C(=O)NCC(=O)N[C@@H](CCCCN)C(=O)N[C@@H](Cc1cnc[nH]1)C(=O)N[C@@H](CC(N)=O)C(=O)NCC(=O)N[C@@H](Cc1c[nH]c2ccccc12)C(=O)N[C@@H](CCCCN)C(=O)N[C@@H](Cc1c[nH]c2ccccc12)C(=O)N[C@@H](Cc1c[nH]c2ccccc12)C(=O)N[C@@H](Cc1c[nH]c2ccccc12)C(=O)O [GKHKNKGKKNGKHNGWKWWW]
- MIC (Pseudomonas aeruginosa): 6.39 µM (≈ 16 µg/mL)
- MIC (Escherichia coli ESBL): 2.26 µM (≈ 5.66 µg/mL)
- MIC [7]: 3.27 µM (≈ 8.19 µg/mL)
- MIC [3]: 3.19 µM (≈ 8 µg/mL)
- MIC [8]: 3.19 µM (≈ 8 µg/mL)
- MIC (Staphylococcus aureus MR): 1.6 µM (≈ 4 µg/mL)
- MIC [9]: 3.27 µM (≈ 8.19 µg/mL)
- MIC [10]: 1.6 µM (≈ 4 µg/mL)
- MIC [11]: > 3.27 µM

Structure (SMILES): CC(C)C[C@H](NC(=O)[C@H](CCCCN)NC(=O)[C@H](CC(C)C)NC(=O)[C@H](CCCCN)NC(=O)[C@H](CC(C)C)NC(=O)[C@H](CCCCN)NC(=O)[C@H](CC(C)C)NC(=O)[C@H](CCCCN)NC(=O)[C@H](CC(C)C)NC(=O)[C@H](CCCCN)NC(=O)[C@H](CC(C)C)NC(=O)[C@H](CCCCN)NC(=O)[C@H](CC(C)C)NC(=O)[C@H](CCCCN)NC(=O)[C@H](CC(C)C)NC(=O)[C@H](CCCCN)NC(=O)[C@H](CC(C)C)NC(=O)[C@@H](N)CCCCN)C(N)=O [KLKLKLKLKLKLKLKLKL]
- MIC [16]: 7.31 µM (≈ 16 µg/mL)
- MIC [17]: 14.6 µM (≈ 32 µg/mL)
- MIC [18]: 3.65 µM (≈ 8 µg/mL)
- MIC [19]: 14.6 µM (≈ 32 µg/mL)

Structure (SMILES): CSCC[C@H](NC(=O)[C@H](CCCCN)NC(=O)[C@H](Cc1c[nH]c2ccccc12)NC(=O)[C@H](CCCN=C(N)N)NC(=O)[C@H](CCCCN)NC(=O)[C@H](Cc1ccccc1)NC(=O)[C@H](CC(C)C)NC(=O)[C@H](CCCN=C(N)N)NC(=O)[C@H](CCCCN)NC(=O)[C@@H](NC(=O)[C@H](CCCCN)NC(=O)[C@@H](N)CCCN=C(N)N)C(C)C)C(=O)O [RKVKRLFKRWKM]
- MIC [20]: 29.8 µM (≈ 50 µg/mL)
- MIC [21]: ≥ 59.7 µM
- MIC [22]: ≥ 59.7 µM
- MIC [23]: ≥ 59.7 µM
- MIC [24]: ≥ 477 µM

Structure (SMILES): CC(C)C[C@H](NC(=O)[C@H](Cc1cnc[nH]1)NC(=O)[C@H](CO)NC(=O)[C@H](CC(N)=O)NC(=O)[C@H](CCCCN)NC(=O)[C@H](CCCCN)NC(=O)[C@H](Cc1ccccc1)NC(=O)[C@H](Cc1c[nH]c2ccccc12)NC(=O)[C@H](CCCCN)NC(=O)CNC(=O)[C@H](Cc1c[nH]c2ccccc12)NC(=O)[C@@H](N)CCCN=C(N)N)C(=O)N[C@@H](CO)C(N)=O [RWGKWFKKNSHLS]
- MIC [25]: ≥ 80 µM
- MIC (Bacillus subtilis 168): ≥ 80 µM
- MIC [26]: ≥ 80 µM
- MIC [27]: ≥ 80 µM
- MIC [28]: > 80 µM
- MIC [29]: ≥ 80 µM

Structure (SMILES): CC[C@H](C)[C@H](NC(=O)[C@H](CCCN=C(N)N)NC(=O)[C@H](CCCN=C(N)N)NC(=O)[C@H](CCCN=C(N)N)NC(=O)[C@H](CO)NC(=O)[C@H](Cc1ccccc1)NC(=O)[C@H](CC(=O)O)NC(=O)[C@H](Cc1ccccc1)NC(=O)[C@H](CCCN=C(N)N)NC(=O)[C@H](CCCN=C(N)N)NC(=O)[C@H](CCCN=C(N)N)NC(=O)[C@@H](N)CO)C(=O)N[C@@H](Cc1ccc(O)cc1)C(=O)N[C@H](C(=O)N[C@@H](C)C(=O)N[C@@H](CCCN=C(N)N)C(=O)N[C@@H](CCCN=C(N)N)C(=O)N[C@@H](CCCN=C(N)N)C(=O)N[C@@H](CO)C(=O)N[C@@H](CC(C)C)C(=O)N[C@@H](C)C(=O)N[C@@H](Cc1ccccc1)C(=O)N[C@@H](C)C(=O)N[C@@H](Cc1cnc[nH]1)C(=O)N[C@@H](CCCN=C(N)N)C(=O)N[C@@H](CCCN=C(N)N)C(=O)N[C@@H](CCCN=C(N)N)C(=O)O)C(C)C [SRRRFDFSRRRIYVARRRSLAFAHRRR]
- MIC [30]: 6.25 µM (≈ 22.2 µg/mL)
- MIC [31]: 6.25 µM (≈ 22.2 µg/mL)
- MIC [32]: 6.25 µM (≈ 22.2 µg/mL)

Now from value to compound:

- MIC [1]: 8 µM (≈ 18.6 µg/mL)
- MIC [2]: 4 µM (≈ 9.28 µg/mL)
- MIC [3]: 64 µM (≈ 148 µg/mL)
- MIC [4]: 16 µM (≈ 37.1 µg/mL)
- MIC [5]: ≥ 64 µM
- MIC [6]: 16 µM (≈ 37.1 µg/mL)
Structure (SMILES): CC[C@H](C)[C@@H]1NC(=O)[C@H](CC(C)C)NC(=O)[C@@H](NC(=O)[C@H](Cc2ccccc2)NC(=O)[C@H](CC(C)C)NC(=O)[C@H](CCCCN)NC(=O)[C@@H]2CCCN2C(=O)[C@H](CC(C)C)NC(=O)[C@@H](NC(=O)[C@H](CCCCN)NC(=O)[C@@H](NC(=O)[C@@H](NC(=O)[C@H](C)NC(=O)CNC(=O)[C@H](CC(C)C)NC(=O)[C@H](C)NC(=O)[C@@H](N)Cc2ccccc2)C(C)C)[C@@H](C)O)C(C)C)CSSC[C@@H](C(=O)O)NC(=O)[C@H](CCCCN)NC(=O)[C@H](CCCN=C(N)N)NC(=O)[C@H]([C@@H](C)O)NC1=O [FALGAVTKVLPKLFCLITRKC]

- MIC (Escherichia coli): 25 µM (≈ 59 µg/mL)
- MIC (Candida boidinii): ≥ 50 µM
- MIC (Psychrobacter sp. TAD 1): 2.5 µM (≈ 5.9 µg/mL)
- MIC (Bacillus pumilus): 10 µM (≈ 23.6 µg/mL)
Structure (SMILES): CC[C@H](C)[C@H](NC(=O)CNC(=O)[C@H](CCCN=C(N)N)NC(=O)[C@H](CC(C)C)NC(=O)[C@H](CC(C)C)NC(=O)[C@H](Cc1cnc[nH]1)NC(=O)CNC(=O)[C@H](Cc1ccccc1)NC(=O)[C@@H](N)Cc1ccccc1)C(=O)N[C@H](C(=O)N[C@@H](CO)C(=O)N[C@H](C(=O)NCC(=O)N[C@@H](CCCCN)C(=O)N[C@@H](Cc1cnc[nH]1)C(=O)N[C@H](C(=O)N[C@@H](Cc1cnc[nH]1)C(=O)NCC(=O)N[C@@H](CC(C)C)C(=O)N[C@H](C(=O)N[C@H](C(=O)NCC(=O)O)[C@@H](C)O)[C@@H](C)CC)[C@@H](C)CC)C(C)C)C(C)C [FFGHLLRGIVSVGKHIHGLITG]

- MIC [3]: 8 µM (≈ 16 µg/mL)
- MIC [12]: ≥ 64 µM
- MIC [13]: 16 µM (≈ 32 µg/mL)
- MIC [14]: 32 µM (≈ 64 µg/mL)
- MIC [10]: 32 µM (≈ 64 µg/mL)
- MIC [11]: 32 µM (≈ 64 µg/mL)
- MIC [15]: ≥ 64 µM
Structure (SMILES): CSCC[C@H](NC(=O)[C@H](CC(C)C)NC(=O)CN)C(=O)N[C@@H](CCCCN)C(=O)N[C@@H](CC(C)C)C(=O)N[C@@H](CC(C)C)C(=O)N[C@@H](CCCN=C(N)N)C(=O)N[C@@H](CCC(=O)O)C(=O)N[C@@H](CC(C)C)C(=O)N[C@@H](CC(C)C)C(=O)N[C@@H](Cc1cnc[nH]1)C(=O)N[C@@H](CCSC)C(=O)N[C@@H](Cc1ccccc1)C(=O)N[C@@H](CO)C(=O)N[C@@H](CCCN=C(N)N)C(=O)N[C@H](C(=O)NCC(=O)O)C(C)C [GLMKLLRELLHMFSRVG]
